PMC11079024, “Identification of a family of species-selective complex I inhibitors as potential anthelmintics” (Nature Communications, 2024)
“And” between values parts separate entries of the source, which are not always exact repeats. Identical values can stand only once. Like-named read-outs stand apart in the source and are kept apart here.

Columns and labels:
[1] = biological target: B. taurus (heart) complex I (Bos taurus, UniProt P03887+P17694+P42026); assay: biochemical; format: biochemical
How it was run: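 Complex I activity followed as DCIP reduction (600 nm, 30 s reads, 15 min) with 80 μM NADH and 60 μM decylubiquinone in 25 mM KPi pH 7.5 containing 2 μM antimycin A and 2 mM KCN. Freeze-thawed mouse or bovine heart mitochondria at 0.2 mg/mL; initial-rate percent of solvent control, single-point 100 μM or dose-response.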

[2] = biological target: C. elegans (N2) complex I (NADH:ubiquinone oxidoreductase) (Caenorhabditis elegans, UniProt P24887+Q93873+Q94360); assay: biochemical; format: biochemical; conditions: wild-type C. elegans mitochondria, read-out: percent (%) in vitro complex I activity relative to solvent control
How it was run: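 Activity expressed as percent of solvent control. Complex I rate came from DCIP reduction at 600 nm (initial linear slope, 15 min) with NADH and decylubiquinone as substrates, plus antimycin A and KCN, in pH 7.5 KPi/BSA buffer. Isolated, thrice freeze-thawed mitochondria used at 0.2 mg/mL.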

[3] = B. taurus, Mean of replicates, read-out: Complex I activity, dose-response data
[4] = B. taurus, individual replicates (Rep), read-out: Complex I activity, dose-response data

Sequence of B. taurus (heart) complex I (P03887 whole entry): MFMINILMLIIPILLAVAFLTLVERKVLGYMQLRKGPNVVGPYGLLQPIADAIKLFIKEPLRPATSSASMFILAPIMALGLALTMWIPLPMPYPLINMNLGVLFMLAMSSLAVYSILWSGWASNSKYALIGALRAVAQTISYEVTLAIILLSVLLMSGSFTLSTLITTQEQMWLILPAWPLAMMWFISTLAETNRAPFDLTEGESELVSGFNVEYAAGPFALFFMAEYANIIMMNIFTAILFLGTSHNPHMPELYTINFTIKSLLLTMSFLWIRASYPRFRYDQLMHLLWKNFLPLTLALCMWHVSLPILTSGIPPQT
Sequence of B. taurus (heart) complex I (P17694 34-463): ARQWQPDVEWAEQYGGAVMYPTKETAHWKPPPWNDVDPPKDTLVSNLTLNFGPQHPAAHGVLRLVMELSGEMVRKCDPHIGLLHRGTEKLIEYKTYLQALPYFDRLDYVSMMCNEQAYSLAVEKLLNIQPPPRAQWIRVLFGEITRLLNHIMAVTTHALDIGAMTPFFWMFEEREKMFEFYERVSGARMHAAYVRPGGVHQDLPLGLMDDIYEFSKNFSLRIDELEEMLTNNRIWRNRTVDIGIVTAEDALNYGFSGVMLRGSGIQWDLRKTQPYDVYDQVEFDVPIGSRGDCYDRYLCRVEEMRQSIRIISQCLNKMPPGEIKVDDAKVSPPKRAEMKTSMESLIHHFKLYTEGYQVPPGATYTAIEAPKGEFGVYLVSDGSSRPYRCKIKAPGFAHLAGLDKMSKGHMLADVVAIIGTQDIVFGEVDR
Sequence of B. taurus (heart) complex I (P42026 38-216): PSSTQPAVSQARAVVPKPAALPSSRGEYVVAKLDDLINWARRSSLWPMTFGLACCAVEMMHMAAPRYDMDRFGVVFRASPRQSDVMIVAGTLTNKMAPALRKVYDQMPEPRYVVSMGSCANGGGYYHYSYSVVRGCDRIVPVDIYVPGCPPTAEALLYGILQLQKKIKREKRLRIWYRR
Sequence of C. elegans (N2) complex I (NADH:ubiquinone oxidoreductase) (Q94360 17-199): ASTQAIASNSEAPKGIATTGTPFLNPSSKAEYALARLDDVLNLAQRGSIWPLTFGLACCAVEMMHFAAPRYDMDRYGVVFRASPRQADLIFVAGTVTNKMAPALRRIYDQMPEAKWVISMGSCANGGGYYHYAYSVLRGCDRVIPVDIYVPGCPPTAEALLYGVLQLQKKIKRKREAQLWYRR
Sequence of C. elegans (N2) complex I (NADH:ubiquinone oxidoreductase) (P24887 whole entry): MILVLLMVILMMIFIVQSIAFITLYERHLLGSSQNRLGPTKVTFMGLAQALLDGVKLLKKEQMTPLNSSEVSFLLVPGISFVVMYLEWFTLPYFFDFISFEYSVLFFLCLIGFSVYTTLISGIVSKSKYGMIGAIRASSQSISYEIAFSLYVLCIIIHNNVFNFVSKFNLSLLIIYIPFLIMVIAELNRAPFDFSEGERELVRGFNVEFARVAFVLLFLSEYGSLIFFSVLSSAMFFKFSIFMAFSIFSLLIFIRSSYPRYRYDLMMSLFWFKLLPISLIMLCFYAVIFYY
Sequence of C. elegans (N2) complex I (NADH:ubiquinone oxidoreductase) (Q93873 31-482): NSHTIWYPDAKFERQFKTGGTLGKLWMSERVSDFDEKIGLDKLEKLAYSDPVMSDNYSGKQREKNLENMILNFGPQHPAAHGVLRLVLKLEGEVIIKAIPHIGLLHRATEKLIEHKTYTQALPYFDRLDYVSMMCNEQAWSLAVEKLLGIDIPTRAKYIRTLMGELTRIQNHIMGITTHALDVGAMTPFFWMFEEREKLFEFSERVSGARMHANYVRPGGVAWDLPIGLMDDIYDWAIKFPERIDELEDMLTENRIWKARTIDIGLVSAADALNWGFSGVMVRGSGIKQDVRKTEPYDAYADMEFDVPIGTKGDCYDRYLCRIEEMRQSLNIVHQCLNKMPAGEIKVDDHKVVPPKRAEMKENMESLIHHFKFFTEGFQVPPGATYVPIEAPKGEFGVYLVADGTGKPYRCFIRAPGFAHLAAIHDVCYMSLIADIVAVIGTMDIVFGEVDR

For `COc1cc2c(cc1OC)C(c1ccc(-c3ccc(Cl)c(Cl)c3)o1)=NCC2` [NPD3577], the activity at 0.0001 µM ([1]; B. taurus, dose 0.0001 µM, Mean of replicates, read-out: Complex I activity, dose-response data) was 105%, the “Complex I activity, dose-response data” value ([1]; B. taurus, dose 0.0001 µM, individual replicates (Rep)) was 103.121 and 101.731 and 110.652 and the activity at 0.0001 µM ([1]; B. taurus, dose 0.0001 µM, individual replicates (Rep), read-out: Complex I activity, dose-response data) was 106%. For the same molecule, the activity at 0.0005 µM [1, 3] was 100%, the activity at 0.0005 µM [1, 4] was 100% and the activity at 0.001 µM ([1]; B. taurus, dose 0.001 µM, Mean of replicates, read-out: Complex I activity, dose-response data) was 106%. The “Complex I activity, dose-response data” value ([1]; B. taurus, dose 0.001 µM, individual replicates (Rep)) was 115.208 and 104.399 and 94.945 and 110.770, the activity at 0.0025 µM ([1]; B. taurus, dose 0.0025 µM, Mean of replicates, read-out: Complex I activity, dose-response data) was 109% and the “Complex I activity, dose-response data” value ([1]; B. taurus, dose 0.0025 µM, individual replicates (Rep)) was 105.176 and 104.207 and 109.459. The activity at 0.0025 µM ([1]; B. taurus, dose 0.0025 µM, individual replicates (Rep), read-out: Complex I activity, dose-response data) was 117%, the activity at 0.005 µM ([1]; B. taurus, dose 0.005 µM, Mean of replicates, read-out: Complex I activity, dose-response data) was 109% and the “Complex I activity, dose-response data” value ([1]; B. taurus, dose 0.005 µM, individual replicates (Rep)) was 109.688 and 97.845 and 112.943. The activity at 0.005 µM ([1]; B. taurus, dose 0.005 µM, individual replicates (Rep), read-out: Complex I activity, dose-response data) was 116%, the activity at 0.013 µM ([1]; B. taurus, dose 0.013 µM, Mean of replicates, read-out: Complex I activity, dose-response data) was 106% and the “Complex I activity, dose-response data” value ([1]; B. taurus, dose 0.013 µM, individual replicates (Rep)) was 116.009 and 85.825 and 105.823 and 114.478. The activity at 0.025 µM ([1]; B. taurus, dose 0.025 µM, Mean of replicates, read-out: Complex I activity, dose-response data) was 115%, the “Complex I activity, dose-response data” value ([1]; B. taurus, dose 0.025 µM, individual replicates (Rep)) was 117.057 and 109.262 and 110.097 and the activity at 0.025 µM ([1]; B. taurus, dose 0.025 µM, individual replicates (Rep), read-out: Complex I activity, dose-response data) was 124%. The activity at 0.063 µM ([1]; B. taurus, dose 0.063 µM, Mean of replicates, read-out: Complex I activity, dose-response data) was 111%, the “Complex I activity, dose-response data” value ([1]; B. taurus, dose 0.063 µM, individual replicates (Rep)) was 116.393 and 107.485 and 112.565 and the activity at 0.063 µM ([1]; B. taurus, dose 0.063 µM, individual replicates (Rep), read-out: Complex I activity, dose-response data) was 107%. The activity at 0.125 µM ([1]; B. taurus, dose 0.125 µM, Mean of replicates, read-out: Complex I activity, dose-response data) was 106%, the “Complex I activity, dose-response data” value ([1]; B. taurus, dose 0.125 µM, individual replicates (Rep)) was 115.491 and 103.072 and 105.491 and the activity at 0.125 µM ([1]; B. taurus, dose 0.125 µM, individual replicates (Rep), read-out: Complex I activity, dose-response data) was 100%. For the same molecule, the activity at 0.313 µM ([1]; B. taurus, dose 0.313 µM, Mean of replicates, read-out: Complex I activity, dose-response data) was 109%, the “Complex I activity, dose-response data” value ([1]; B. taurus, dose 0.313 µM, individual replicates (Rep)) was 109.249 and 104.276 and 103.070 and the activity at 0.313 µM ([1]; B. taurus, dose 0.313 µM, individual replicates (Rep), read-out: Complex I activity, dose-response data) was 118%. For the same molecule, the activity at 0.625 µM ([1]; B. taurus, dose 0.625 µM, Mean of replicates, read-out: Complex I activity, dose-response data) was 99%, the “Complex I activity, dose-response data” value ([1]; B. taurus, dose 0.625 µM, individual replicates (Rep)) was 89.823 and 107.117 and 107.828 and the activity at 0.625 µM ([1]; B. taurus, dose 0.625 µM, individual replicates (Rep), read-out: Complex I activity, dose-response data) was 91.2%. It also gave an activity at 1.5 µM [1, 3] of 100%, an activity at 1.5 µM [1, 4] of 100% and an activity at 3 µM ([1]; B. taurus, dose 3 µM, Mean of replicates, read-out: Complex I activity, dose-response data) of 95.5%. The “Complex I activity, dose-response data” value ([1]; B. taurus, dose 3 µM, individual replicates (Rep)) was 93.418 and 99.797 and 99.095, the activity at 3 µM ([1]; B. taurus, dose 3 µM, individual replicates (Rep), read-out: Complex I activity, dose-response data) was 89.6% and the activity at 15 µM ([1]; B. taurus, dose 15 µM, Mean of replicates, read-out: Complex I activity, dose-response data) was 43.4%. For the same molecule, the “Complex I activity, dose-response data” value ([1]; B. taurus, dose 15 µM, individual replicates (Rep)) was 55.501 and 46.406 and 43.941 and 27.922, the activity at 37.5 µM ([1]; B. taurus, dose 37.5 µM, Mean of replicates, read-out: Complex I activity, dose-response data) was 26.1% and the “Complex I activity, dose-response data” value ([1]; B. taurus, dose 37.5 µM, individual replicates (Rep)) was 16.844 and 31.768 and 25.172. For the same molecule, the activity at 37.5 µM ([1]; B. taurus, dose 37.5 µM, individual replicates (Rep), read-out: Complex I activity, dose-response data) was 30.8%, the activity at 75 µM ([1]; B. taurus, dose 75 µM, Mean of replicates, read-out: Complex I activity, dose-response data) was 23.8% and the “Complex I activity, dose-response data” value ([1]; B. taurus, dose 75 µM, individual replicates (Rep)) was 15.504 and 26.993 and 22.808. The activity at 75 µM ([1]; B. taurus, dose 75 µM, individual replicates (Rep), read-out: Complex I activity, dose-response data) was 30%, the IC50 ([1]; heart mitochondria, read-out: B. taurus Complex I IC50) was 9.49 µM and the remaining activity at 0.125 µM ([2]; mean of replicates) was 96.8%. It also gave a remaining activity at 0.125 µM ([2]; single replicate) of 96.7%, a remaining activity at 0.313 µM ([2]; mean of replicates) of 92.4% and a remaining activity at 0.313 µM ([2]; single replicate) of 92.5%. It also gave a remaining activity at 0.625 µM ([2]; mean of replicates) of 100%, a remaining activity at 0.625 µM ([2]; single replicate) of 100% and a remaining activity at 1.5 µM ([2]; mean of replicates) of 94.3%. It also gave a remaining activity at 1.5 µM ([2]; single replicate) of 96.2%, a remaining activity at 3 µM ([2]; mean of replicates) of 92.6% and a remaining activity at 3 µM ([2]; single replicate) of 93.9%.
